“And” between values parts separate entries of the source, which are not always exact repeats. Equal entries are not always repeated.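 Assay format: 96-well plates, 48-hour exposure. GI50 marks 50% less growth. At the TGI there is no net growth.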
Experiments:
Test in all cases: NCI tumour cell line growth inhibition, 48 h
[1] = tested on: DLD-1 colon
[2] = tested on: M19-MEL melanoma
[3] = tested on: XF 498 CNS
[4] = tested on: RXF-631 renal
[5] = tested on: SN12K1 renal
[6] = tested on: MDA-N
[7] = tested on: HS 578T breast
[8] = tested on: P388 leukemia
[9] = tested on: T-47D breast
[10] = tested on: DU-145 prostate
[11] = tested on: PC-3 prostate

CC(=O)OCC1OC(n2cnc3c(I)nc(I)nc32)C(OC(C)=O)C1OC(C)=O (stereo not drawn) showed a TGI [1] of 24.2 µM, a TGI [2] of 12.2 µM and a TGI [3] of 35.9 µM. For the same compound, the TGI [4] was 34.9 µM.
Work on Clc1ccc(C2=NN(c3ccccc3)C3c4cc(Br)ccc4OCC23)cc1 (stereo not drawn) yielded a TGI [1] of over 100 µM, a TGI [2] of over 100 µM and a TGI [3] of over 100 µM. For the same compound, the TGI [4] was over 100 µM.
COc1ccc(Nc2nc3c(N)cc(C(F)(F)F)cc3nc2-c2ccccc2)cc1 showed a TGI [1] of over 100 µM, a TGI [2] of over 100 µM and a TGI [3] of over 100 µM. For the same compound, the TGI [4] was over 100 µM.
With CCN1N=CSC12C(=O)N(c1ccccc1)C(=O)N2c1ccccc1 (stereo not drawn) the TGI [1] was over 100 µM, the TGI [3] was over 100 µM and the TGI [4] was over 100 µM.
With C=C1C(=O)C23C(O)C1CCC2C12CO[C@]3(O)[C@@H](O)C1C(C)(C)CCC2O (stereo partly drawn) the TGI [1] was 33.8 µM, the TGI [2] was 23.7 µM and the TGI [3] was 5.24 µM. The TGI [4] was 34.5 µM.
Compound C[CH2][Sn]([CH2]C)([O]C(=O)c1cc(OC)c(OC)c(OC)c1)[O][Sn]([CH2]C)([CH2]C)[O]C(=O)c1cc(OC)c(OC)c(OC)c1 has a GI50 [1] of 27.9 µM, a TGI [1] of over 74.1 µM and a GI50 [2] of 31.3 µM. For the same compound, the TGI [2] was over 100 µM, the GI50 [3] was 16.9 µM and the TGI [3] was 31.3 µM. It also gave a GI50 [4] of 24.5 µM and a TGI [4] of 53.7 µM.
With CN(C)CC1CCCC(CN(C)C)C1=O (stereo not drawn) the TGI [1] was 4.14 µM, the TGI [5] was 30.4 µM and the TGI [6] was 25.6 µM and 28.4 µM. For the same compound, the GI50 [7] was 3.26 µM and 26.5 µM, the TGI [7] was > 100 µM and 80.3 µM and the TGI [8] was 2130 nM. For the same compound, the TGI [2] was 7.24 µM, the TGI [9] was 4.23 µM and 3.38 µM and the TGI [3] was 3.69 µM. The TGI [10] was 29.4 µM, the GI50 [11] was 18.7 µM and 4.98 µM and the TGI [11] was 33.4 µM and 16.9 µM.
CCOC(=O)C12CN(C34CC5CC(CC(C5)C3)C4)CC(C(=O)OCC)(C1=O)C(c1ccccc1)OC2c1ccccc1 (stereo not drawn) showed a TGI [1] of over 100 µM, a TGI [2] of over 100 µM and a TGI [3] of over 100 µM.
With COc1ccc(C(=O)Nc2ccccc2)cc1[N+](=O)[O-] the TGI [1] was over 100 µM, the TGI [2] was over 100 µM and the TGI [3] was over 100 µM. For the same compound, the TGI [4] was over 100 µM.
With CCOc1ccc(NC(=O)/C(=C/c2ccccc2)C(C)=O)cc1 the TGI [1] was 24 µM, the TGI [2] was 27.7 µM and the TGI [3] was 28.9 µM.
O=c1[nH]cnc2c1nnn2C1C=C(CO)C(O)C1O (stereo not drawn) gave a TGI [1] of over 100 µM, a TGI [2] of over 100 µM and a TGI [3] of over 100 µM.
For Nc1ncn([C@@H]2C=C(CO)C(O)C2O)c(=O)n1 (stereo partly drawn), the TGI [1] was over 100 µM, the TGI [2] was over 100 µM and the TGI [3] was over 100 µM. It also gave a TGI [4] of over 100 µM.
With CC1(C)CC[C@]2(C(=O)O)CCC3(C)C(=CCC4[C@@]5(C)CC[C@H](OC6OCC(O)C(O)C6OC6OC(CO)C(O)C(O)C6O)C(C)(C)C5CC[C@]43C)C2C1 (stereo partly drawn) the TGI [1] was 22.7 µM, the TGI [2] was 3.46 µM and the TGI [3] was 4.59 µM. It also gave a TGI [4] of 3.21 µM.
O=C1/C(=C/c2ccccc2Cl)COc2ccccc21 showed a TGI [1] of 29.4 µM, a TGI [2] of 34.2 µM and a TGI [3] of 29.2 µM. The TGI [4] was 36.3 µM.
Compound COc1ccc(C=O)c(N(C)C(=O)C(C)(C)C)c1 has a TGI [2] of over 100 µM, a TGI [3] of over 100 µM and a TGI [4] of over 100 µM.
Work on Cc1ccc(S(=O)(=O)OC(C=O)C(O)C(O)COC(c2ccccc2)(c2ccccc2)c2ccccc2)cc1 (stereo not drawn) yielded a TGI [2] of 26.1 µM, a TGI [3] of 29.2 µM and a TGI [4] of 10.5 µM.
With CCN1CCC(O)(c2ccccc2)C(C(=O)c2ccccc2)C1 (stereo not drawn) the TGI [1] was 37 µM, the TGI [2] was over 63.1 µM and the TGI [3] was 29.9 µM.
CC1=C(C(=O)Nc2cc(F)c(F)cc2F)C(c2cccc([N+](=O)[O-])c2)C(C(=O)Nc2ccccc2C(F)(F)F)=C(C)N1 (stereo not drawn) was tested, and the TGI [1] was 94.7 µM, the TGI [2] was 91.5 µM and the TGI [4] was 49.3 µM.
With COC(=O)C1(c2ccc(OC)cc2)NC(c2ccccc2)C2C(=O)N(c3ccc(OC)cc3)C(=O)C21 (stereo not drawn) the TGI [1] was over 100 µM, the TGI [3] was over 100 µM and the TGI [4] was over 100 µM.
Compound Nc1cc2c3c(cccc3c1)C(=O)N(CCN1CCN(CCN3C(=O)c4cccc5cc(N)cc(c45)C3=O)CC1)C2=O has a TGI [2] of over 100 µM, a TGI [3] of over 100 µM and a TGI [4] of over 100 µM.
For Cc1ccc(NC(=O)CCC(=O)C2CC(=O)CCC2=O)cc1C (stereo not drawn), the TGI [1] was over 100 µM, the TGI [2] was over 100 µM and the TGI [4] was over 100 µM.
For Cn1c(=O)c2c(nc3n2C(CCl)CO3)n(C)c1=O (stereo not drawn), the TGI [1] was over 100 µM, the TGI [2] was over 100 µM and the TGI [4] was over 100 µM.
